Measurements published in US8440694B2, “Quinoline compounds suitable for treating disorders that respond to modulation of the serotonin-5-HT6 receptor” (Abbott GmbH & Co. KG, priority 2007, dated 2013).
Structures can show the parent of a compound that is named as a salt.

Biological target: T1, h-5-HT6 receptor (Homo sapiens, UniProt P50406)
T1 construct: expressed in transfected cells
Experiment: 5-HT6 receptor binding assay (displacement of [3H]-LSD)
Settings: membranes of HEK293 cells stably expressing h-5-HT6 receptor, [3H]-LSD displacement
Experimental: Displacement of Radioligands Binding to the Following Cloned Human Receptors
Cells from stable clonal cell lines expressing the corresponding receptor (5-HT6, α1-adrenergic, dopamine D2 or histamine H1 receptors) were washed with PBS (w/o Ca^++, Mg^++) and harvested in PBS with 0.02% EDTA. The cells were collected by centrifugation at 500 g for 10 min. at 4° C., washed with PBS and centrifuged (500 g, 10 min. 4° C.). The pellets were stored at −80° C. until use. For membrane preparation, the thawed cell pellet was resuspended in ice-cold sucrose buffer (0.25 M sucrose, 10 mM Hepes (pH 7.4), 1 mM Phenylmethylsulfonyl fluoride (PMSF) in DMSO, 5 μg/ml Pepstatin-A, 3 mM EDTA, 0.025% Bacitracin) and homogenized with a Branson Sonifier W-250 (Settings: Timer 4; Output Control 3; Duty Cycle constant; 2 to 3 cycles). Cell disruption was checked with the aid of a microscope. Remaining unbroken cells were pelleted at 1.000 g for 10 min. at 4° C. The sucrose buffer supernatant was then centrifuged at 60.000 g for 1 h at 4° C. (Beckman Ultrazentrifuge XL 80). The pellet was resuspended in 30 ml ice-cold Tris buffer (20 mM TRIS (pH 7.4), 5 μg/ml Pepstatin A, 0.1 mM PMSF, 3 mM EDTA) by pipetting through a 10 ml serological pipet and centrifuged for 1 h at 4° C. at 60.000 g. A final resuspension was performed in a small volume of ice-cold Tris buffer (see above) by pressing through a serological pipet followed by ultrasonic treatment with a Branson Sonifier W-250 (Settings: Timer 1; Output Control 3; Duty Cycle constant; 1 cycle). Protein concentration was determined (BCA-Kit; Pierce) and aliquots stored at −80° C. or in liquid nitrogen for long-term storage.
All receptor binding experiments were carried out in the corresponding assay buffer in a total volume of 200 μl in the presence of various concentrations of test compound (10^−5 M to 10^−9 M, tenfold serial dilution, duplicate determinations). The assays were terminated by filtration on polyethylenimine (PEI 0.1% or 0.3%) presoaked Packard Unifilter Plates (GF/C or GF/B) with a Tomtec MachIII U 96well-plate harvester. After the plates had been dried for 2 h at 55° C. in a drying chamber scintillation cocktail (BetaPlate Scint; PerkinElmer) was added. Radioactivity was measured in a Microbeta Trilux two hours after the addition of the scintillation mixture. Data derived from liquid scintillation counting were analysed by iterative non-linear regression analysis with the use of the Statistical Analysis System (SAS): a program similar to “LIGAND” as described by Munson and Rodbard (Analytical Biochemistry 107, 220-239 (1980).
HEK293 cells stably expressing the h-5-HT6 receptor (NCBI Reference Sequence XM 001435) were cultured in RPMI1640 medium supplemented with 25 mM HEPES, 10% fetal calf serum and 1-2 mM glutamine. The membrane preparation was performed as described in section 1. […] Non-specific binding was defined with 1 μM methiothepin. The binding reaction was carried out for 3.5 h at room temperature. During the incubation, the plates were shaken on a plate shaker at 100 rpm and terminated by filtration on Packard Unifilter GF/C (0.1% PEI) plates, followed by 2 wash cycles with ice-cold 50 mM Tris-HCl, 5 mM CaCl2.
Data derived from liquid scintillation counting were analyzed by iterative non-linear regression analysis with the use of the Statistical Analysis System (SAS): a program similar to “LIGAND” as described by Munson and Rodbard (Anal. Biochem. 1980, 107, 220-239). Fitting was performed according to formulae described by Feldman (Anal. Biochem. 1972, 48, 317-338). IC50, nH and Ki values were expressed as geometrical mean.

T1 sequence (P50406 whole entry): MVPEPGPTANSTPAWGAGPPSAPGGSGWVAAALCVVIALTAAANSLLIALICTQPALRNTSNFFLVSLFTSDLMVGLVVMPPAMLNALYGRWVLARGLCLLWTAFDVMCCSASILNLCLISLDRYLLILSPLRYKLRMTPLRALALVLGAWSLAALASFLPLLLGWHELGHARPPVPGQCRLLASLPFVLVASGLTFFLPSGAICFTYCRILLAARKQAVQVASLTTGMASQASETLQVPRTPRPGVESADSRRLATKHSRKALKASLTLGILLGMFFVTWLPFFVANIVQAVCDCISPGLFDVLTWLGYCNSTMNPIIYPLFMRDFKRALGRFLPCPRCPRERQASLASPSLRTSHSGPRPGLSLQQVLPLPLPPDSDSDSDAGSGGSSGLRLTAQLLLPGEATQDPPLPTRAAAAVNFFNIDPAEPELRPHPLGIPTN

Row | SMILES | Ki [nM]
1 | O=S(=O)(c1cccc(F)c1)c1cnc2c(N3C[C@@H]4CN[C@@H]4C3)cccc2c1 [Example 32, (1S,5S)-3-(3-(3-fluorophenylsulfonyl)quinolin-8-yl)-3-aza-6-azoniabicyclo[3.2.0]heptane hydrochloride] | < 10
2 | O=S(=O)(c1ccc(F)cc1)c1cnc2c(N3CC4CCNC4C3)cccc2c1 (stereo not drawn) [Example 39, 3-(4-fluorophenylsulfonyl)-8-(hexahydropyrrolo[3,4-b]pyrrol-5(1H)-yl)quinoline] | < 10
3 | O=S(=O)(c1ccccc1)c1cnc2c(N3CCC4NC5CCCCC5C4C3)cccc2c1 (stereo not drawn) [Example 42, 2-(3-(phenylsulfonyl)quinolin-8-yl)dodecahydro-1H-pyrido[4,3-b]indole] | < 250
4 | O=S(=O)(c1ccc(F)cc1)c1cnc2c(N3CC4CCNCC4C3)cccc2c1 (stereo not drawn) [Example 13, 3-(4-fluorophenylsulfonyl)-8-(1H-pyrrolo[3,4-c]pyridin-2(3H,3aH,4H,5H,6H,7H,7aH)-yl)quinoline] | < 10
5 | O=S(=O)(c1cccc(OC(F)(F)F)c1)c1cnc2c(N3CC4CNCC4C3)cccc2c1 (stereo not drawn) [Example 16, 8-(hexahydropyrrolo[3,4-c]pyrrol-2(1H)-yl)-3-(3-(trifluoromethoxy)-phenylsulfonyl)quinoline] | < 10
6 | O=S(=O)(c1ccccc1)c1cnc2c(N3CC[C@H]4CNC[C@H]43)cccc2c1 [Example 12, 8-((3aS,6aS)-hexahydropyrrolo[3,4-b]pyrrol-1(2H)-yl)-3-(phenylsulfonyl)-quinoline] | < 10
7 | O=S(=O)(c1ccccc1)c1cnc2c(N3CCCC4NCCCC43)cccc2c1 (stereo not drawn) [Example 10, 1-(3-(phenylsulfonyl)quinolin-8-yl)decahydro-1,5-naphthyridine] | < 250
8 | O=S(=O)(c1cccc(N2CC3CNCC3C2)c1)c1cnc2c(N3CC4CNCC4C3)cccc2c1 (stereo not drawn) [Example 18, 8-(hexahydropyrrolo[3,4-c]pyrrol-2(1H)-yl)-3-(3-(hexahydropyrrolo[3,4-c]pyrrol-2(1H)-yl)phenylsulfonyl)quinoline] | < 10
9 | O=S(=O)(c1cccc(F)c1)c1cnc2c(N3CC[C@H]4CNC[C@H]43)cccc2c1 [Example 26, 3-(3-Fluoro-benzenesulfonyl)-8-(3aS,6aS)-hexahydropyrrolo[3,4-b]pyrrol-1-yl-quinoline hydrochloride] | < 10
10 | O=S(=O)(c1cccc(F)c1)c1cnc2c(N3CC4CCNC4C3)cccc2c1 (stereo not drawn) [Example 29, 3-(3-Fluoro-benzenesulfonyl)-8-(hexahydro-pyrrolo[3,4-b]pyrrol-5-yl)-quinoline hydrochloride] | < 10
11 | O=C(OCc1ccccc1)N1CC2CN(c3cccc4cc(S(=O)(=O)c5ccccc5)cnc34)C2C1 (stereo not drawn) [Example 2, Benzyl 6-(3-(phenylsulfonyl)quinolin-8-yl)-3,6-diazabicyclo[3.2.0]heptane-3-carboxylate] | < 250
12 | CC(C)(C)OC(=O)N1CC2CN(c3cccc4cc(S(=O)(=O)c5cccc(OC(F)(F)F)c5)cnc34)CC2C1 (stereo not drawn) [Example 15, tert-butyl 5-(3-(3-(trifluoromethoxy)phenylsulfonyl)quinolin-8-yl)hexahydropyrrolo[3,4-c]pyrrole-2 (1H)-carboxylate] | < 50
13 | O=S(=O)(c1ccccc1)c1cnc2c(N3CC4CNCC4C3)cccc2c1 (stereo not drawn) [Example 43, 8-(hexahydropyrrolo[3,4-c]pyrrol-2(1H)-yl)-3-(phenylsulfonyl)quinoline] | < 10
14 | O=S(=O)(c1cccc(F)c1)c1cnc2c(N3C[C@H]4CN[C@H]4C3)cccc2c1 [Example 28, 8-(1R,5R)-3,6-Diaza-bicyclo[3.2.0]hept-3-yl-3-(3-fluoro-benzenesulfonyl)-quinoline hydrochloride] | < 10
15 | CN1CCC2CN(c3cccc4cc(S(=O)(=O)c5ccccc5)cnc34)CC2C1 (stereo not drawn) [Example 41, 8-(5-methyl-1H-pyrrolo[3,4-c]pyridin-2(3H,3aH,4H,5H,6H,7H,7aH)-yl)-3] | < 50
16 | O=S(=O)(c1cccc(OC(F)(F)F)c1)c1cnc2c(N3CC4CCNCC4C3)cccc2c1 (stereo not drawn) [Example 20, 8-(1H-pyrrolo[3,4-c]pyridin-2(3H,3aH,4H,5H,6H,7H,7aH)-yl)-3-(3-(trifluoromethoxy)phenylsulfonyl)quinoline] | < 10

Continued, values first:

Row | Ki [nM] | SMILES
17 | < 10 | O=S(=O)(c1ccccc1)c1cnc2c(N3CC4CCNC4C3)cccc2c1 (stereo not drawn) [Example 1, 8-(Hexahydropyrrolo[3,4-b]pyrrol-5(1H)-yl)-3-(phenylsulfonyl)quinoline hydrochloride]
18 | < 10 | O=S(=O)(c1ccccc1)c1cnc2c(N3CC4CCNCC4C3)cccc2c1 (stereo not drawn) [Example 4, 3-(Phenylsulfonyl)-8-(1H-pyrrolo[3,4-c]pyridin-2(3H,3aH,4H,5H,6H,-7H,7aH)-yl)quinoline]
19 | < 10 | O=S(=O)(c1ccc(F)cc1)c1cnc2c(N3CC4CNCC4C3)cccc2c1 (stereo not drawn) [Example 14, 3-(4-fluorophenylsulfonyl)-8-(hexahydropyrrolo[3,4-c]pyrrol-2(1H)-yl)quinoline]
20 | < 250 | CC(C)(C)OC(=O)N1CCC2CN(c3cccc4cc(S(=O)(=O)c5ccccc5)cnc34)CC2C1 (stereo not drawn) [Example 3, tert-butyl 2-(3-(phenylsulfonyl)quinolin-8-yl)hexahydro-1H-pyrrolo[3,4-c]pyridine-5(6H)-carboxylate]
21 | < 10 | O=S(=O)(c1cccc(C(F)(F)F)c1)c1cnc2c(N3CC4CCNCC4C3)cccc2c1 (stereo not drawn) [Example 44, 8-(1H-pyrrolo[3,4-c]pyridin-2(3H,3aH,4H,5H,6H,7H,7aH)-yl)-3-(3-(trifluoromethyl)phenylsulfonyl)quinoline]
22 | < 10 | O=S(=O)(c1cccc(C(F)(F)F)c1)c1cnc2c(N3C[C@H]4CNC[C@H]4C3)cccc2c1 [Example 24, 8-((3aR,6aS)-hexahydropyrrolo[3,4-c]pyrrol-2(1H)-yl)-3-(3-(trifluoromethyl)phenylsulfonyl)quinoline]
23 | < 10 | O=S(=O)(c1ccccc1)c1cnc2c(N3CC4CN(Cc5ccccc5)CC4C3)cccc2c1 (stereo not drawn) [Example 40, 8-(5-benzylhexahydropyrrolo[3,4-c]pyrrol-2(1H)-yl)-3-(phenylsulfonyl)-quinoline]
24 | < 10 | O=S(=O)(c1cccc(F)c1)c1cnc2c(N3C[C@H]4CNC[C@H]4C3)cccc2c1 [Example 30, 3-(3-Fluoro-benzenesulfonyl)-8-(3aR,6aS)-hexahydro-pyrrolo[3,4-c]pyrrol-2-yl-quinoline hydrochloride]
25 | < 10 | O=S(=O)(c1cccc(C(F)(F)F)c1)c1cnc2c(N3CC4CCNC4C3)cccc2c1 (stereo not drawn) [Example 22, 8-(hexahydropyrrolo[3,4-b]pyrrol-5(1H)-yl)-3-(3-(trifluoromethyl)-phenylsulfonyl)quinoline]
26 | < 10 | O=S(=O)(c1cccc(F)c1)c1cnc2c(N3CC4CCCNC4C3)cccc2c1 (stereo not drawn) [Example 31, 6-(3-(3-fluorophenylsulfonyl)quinolin-8-yl)octahydro-1H-pyrrolo[3,4-b]pyridin-1-ium chloride]
27 | < 50 | CC(C)(C)OC(=O)N1CCC2CN(c3cccc4cc(S(=O)(=O)c5cccc(OC(F)(F)F)c5)cnc34)CC2C1 (stereo not drawn) [Example 19, tert-butyl 2-(3-(3-(trifluoromethoxy)phenylsulfonyl)quinolin-8-yl)hexahydro-1H-pyrrolo[3,4-c]pyridine-5(6H)-carboxylate]
